The structures appear in SMILES notation. Values joined by “and” are separate entries in the source; they are usually repeats but may differ in a detail not shown here. Equal entries are not always repeated.

One series concerns HCV. The series is described as follows: Anti-HCV assay in Huh7.5 cells, intracellular HCV RNA by real time RT-PCR. Format: cell-based. The settings on record: Hepatitis C virus, 96 h.
Series [1] concerns influenza A, HCV, Cox B3 virus and HBV. In words: Broad-spectrum antiviral panel (summary over all four antiviral assays). Format: cell-based. The settings on record: range/approximate value over influenza A, read-out: IC50 over the entire virus panel.
The next series has as its system MDCK cells. The series is described as follows: Cytotoxicity in MDCK cells (CPE). Format: cell-based, Canine. Particulars: 48 h, Reed & Muench.
The next series relates to HBV. In words: Anti-HBV assay in HepG2.2.15 cells, viral DNA by real time PCR. The settings on record: for IC50: Hepatitis B virus, HepG2.2.15, 144 h, intracellular viral DNA, 3 + 3 days. Format: cell-based, Hepatitis B virus. The method, then:
The synthesized target compounds were assayed for their broad spectrum antiviral activity towards influenza A, HBV, HCV and Cox B3 virus in vitro. […] The inhibitory activities towards HBV and HCV were tested by real time PCR, and lamivudine (3TC) and teleprevir were used as positive controls, respectively.
The anti-HBV activities of test compounds and a positive control drug were tested in HepG2.2.15 cells. The HepG2.2.15 cells were cultured in 96-well plates and treated with the test compounds at 37 °C for 3 days. The medium was removed, and fresh medium containing the test compounds was added for an additional 3 days. The cells were harvested and intracellular DNA was extracted. The inhibition of viral DNA replication in treated cells versus untreated cells was determined by real time PCR.

For the next series, the system named is Huh7.5 cells. The series is described as follows: Cytotoxicity in Huh7.5 cells (MTT). The format is cell-based, human. The settings on record: 96 h. The method, then:
The Huh7.5 cells (1 × 10^4 cells/well) were plated in 96-well plates. Six hours later the culture media was replaced with fresh medium containing the test compounds at various concentrations. Cytotoxicity was evaluated with the 3-(4,5-dimethylthiazol-2-yl)-2,5-diphenyltetrazolium bromide (MTT) assay after 96 h.
Huh7.5 cells were seeded at a density of 3 × 10^4 cells/cm^2. After 24 h of incubation, the cells were infected with an HCV viral stock (approximately 45 IU per cell) and simultaneously treated with Telaprevir, the test compounds, or the solvent control. The culture medium was removed 96 h after inoculation, and the total intracellular RNA and total intracellular proteins were extracted with a Qiagen Kit according to the manufacturer’s instructions. Intracellular HCV RNA was quantified using a one-step real time RT-PCR kit (Invitrogen). Cytotoxicity was tested by the MTT assay, and IC50 values were calculated by the Reed and Muench methods.

For a further series, the system named is HepG2.2.15 cells. The series is described as follows: Cytotoxicity in HepG2.2.15 cells (CPE). Format: cell-based, human. The settings on record: 3 + 3 days. The method, then:
Cells were cultured for 3 days at 37 °C in a 5% CO2 atmosphere in an incubator, and the medium was replaced with fresh medium containing the test compounds for an additional 3 days. The cells were subsequently monitored by CPE and the TC50 value was calculated using Reed and Muench analysis.

In a further series the test system is Vero cells. The series is described as follows: Cytotoxicity in Vero cells (CPE). The settings on record: 48 h, Reed & Muench.
Another series deals with Cox B3. The series is described as follows: organism not typed. The settings on record: Vero. The format is cell-based, Coxsackie viruses (Cox B3 Nancy strain).
Series [2] has as its system Influenza A/hanfang/359/95. In words: microbe, parasite or virus in culture. Format: cell-based. Particulars: Influenza A virus, MDCK.

Protocol for MDCK cells: (§1) The cytotoxicity of the compounds in MDCK, Vero and HepG2.2.15 cells was monitored via cytopathic effect (CPE) assays. The MDCK and Vero cells (2.5 × 10^4 /well) were plated in a 96-well plate. Following a 24 h hold period, the monolayer of cells was incubated in the presence of various concentrations of the test compounds. […] The TC50 value was calculated using Reed & Muench analysis.
Protocol for Vero cells: as §1

In turn, `COc1ccccc1/C=C/CNc1ccc2ncsc2c1` [3f, (E)-benzothiazol-6-yl-[3-(2-methoxy-phenyl)-allyl]-amine] registered a melting point of 107 to 109 °C. Moreover, the half-maximal inhibitory concentration (IC50) with HCV came to 5.04 µM. For the same compound, the half-inhibitory concentration (IC50) in [1] was 3.21 to 5.06 µM and ~5 µM. Further, the “TC50 (50% cytotoxic concentration), Influenza A/hanfang/359/95” value with MDCK cells was found to be 21.66 µM. The 50% inhibitory concentration (IC50) in the series on HBV worked out at 5.06 µM. Moreover, the “TC50 (50% cytotoxic concentration), HCV” value in the series with Huh7.5 cells is 54.99 µM. For the same compound, the “TC50 (50% cytotoxic concentration), HBV” value with HepG2.2.15 cells amounted to 28.87 µM. Moreover, the “TC50 (50% cytotoxic concentration), Cox B3” value with Vero cells worked out at 12.48 µM. For the same compound, the 50% inhibitory concentration (IC50) in the series on Cox B3 was found to be 3.21 µM. In series [2], this compound yielded a half-inhibitory concentration (IC50) of 4.15 µM.

In the case of `COc1cccc(CNc2ccc3ncsc3c2)c1O` [3b, 2-(Benzothiazol-6-ylaminomethyl)-6-methoxyphenol], the melting point fell in the range of 206 to 208 °C. This compound registered a concentration for half-maximal inhibition (IC50) with HCV of 38 µM. Further, the “TC50 (50% cytotoxic concentration), Influenza A/hanfang/359/95” value in the series on MDCK cells was 55.95 µM. In the series on HBV, the half-maximal inhibitory concentration (IC50) was greater than 33.3 µM. The “TC50 (50% cytotoxic concentration), HCV” value in the series on Huh7.5 cells amounted to 126.59 µM. The “TC50 (50% cytotoxic concentration), HBV” value with HepG2.2.15 cells was found to be 57.74 µM. Further, the “TC50 (50% cytotoxic concentration), Cox B3” value in the series on Vero cells is 67.23 µM. This compound had a half-inhibitory concentration (IC50) in the series with Cox B3 of 5.66 µM. Besides, the IC50 in [2] turned out to be 10 µM.

`c1ncc(CNc2ccc3ncsc3c2)cn1` [3j, Benzothiazol-6-yl-pyrimidin-5-ylmethyl-amine]: the melting point lay within 127 to 129 °C. The same compound yielded an IC50 in the series with HCV greater than 66.7 µM. The “TC50 (50% cytotoxic concentration), Influenza A/hanfang/359/95” value in the series with MDCK cells is 826.44 µM. Also, the IC50 in the series with HBV is greater than 16.7 µM. Also, in the series with Huh7.5 cells, the “TC50 (50% cytotoxic concentration), HCV” value is greater than 200 µM. Also, the “TC50 (50% cytotoxic concentration), HBV” value in the series with HepG2.2.15 cells was 28.87 µM. For the same compound, in the series with Vero cells, the “TC50 (50% cytotoxic concentration), Cox B3” value stood at 826.44 µM. This compound also gave an IC50 in the series on Cox B3 of 53 µM. This compound also returned an IC50 in series [2] of 214 µM.

`Clc1ccc(CNc2ccc3ncsc3c2)s1` [3i, Benzothiazol-6-yl-(5-chlorothiophen-2-ylmethyl)-amine]: the melting point is 104 to 106 °C. The compound further yielded an IC50 with HCV of 9.81 µM. Further, in the series with MDCK cells, the “TC50 (50% cytotoxic concentration), Influenza A/hanfang/359/95” value was found to be 27.42 µM. For the same compound, in the series on HBV, the IC50 was greater than 5.56 µM. The “TC50 (50% cytotoxic concentration), HCV” value in the series on Huh7.5 cells was 38.24 µM. In the series with HepG2.2.15 cells, the “TC50 (50% cytotoxic concentration), HBV” value worked out at 9.62 µM. In addition, the “TC50 (50% cytotoxic concentration), Cox B3” value in the series with Vero cells was 13.18 µM. Also, in the series with Cox B3, the IC50 came out at 2.53 µM. Besides, the half-inhibitory concentration (IC50) in [2] was determined as 3.42 µM.

For `Cc1ccc(CNc2ccc3ncsc3c2)o1` [3g, Benzothiazol-6-yl-(5-methylfuran-2-ylmethyl)-amine], the melting point was 52 to 54 °C. For the same compound, the midpoint of inhibition in the series with HCV, the IC50, lay at 34.9 µM. The IC50 in [1] lay within 0.71 to 34.9 µM. In addition, in the series on MDCK cells, the “TC50 (50% cytotoxic concentration), Influenza A/hanfang/359/95” value amounted to 94.60 µM. In addition, the IC50 with HBV was determined as 0.7 µM. Besides, in the series on Huh7.5 cells, the “TC50 (50% cytotoxic concentration), HCV” value came out at 138.38 µM. In addition, the “TC50 (50% cytotoxic concentration), HBV” value with HepG2.2.15 cells is 21.48 µM. Also, in the series on Vero cells, the “TC50 (50% cytotoxic concentration), Cox B3” value was 65.57 µM. The same compound came in with a half-maximal inhibitory concentration (IC50) in the series with Cox B3 of 5.03 µM. Also, the midpoint of inhibition in [2], the IC50, lay at 26.2 µM.

`COc1cc(CNc2ccc3ncsc3c2)cc(Br)c1O` [3a, 4-(Benzothiazol-6-ylaminomethyl)-2-bromo-6-methoxyphenol] returned a melting point of 193 to 195 °C. The IC50 with HCV was found to be 49 µM. Moreover, the “TC50 (50% cytotoxic concentration), Influenza A/hanfang/359/95” value in the series with MDCK cells was 21.08 µM. For the same compound, the IC50 in the series on HBV was greater than 16.7 µM. Moreover, the “TC50 (50% cytotoxic concentration), HCV” value in the series on Huh7.5 cells came out at 108.82 µM. Further, in the series on HepG2.2.15 cells, the “TC50 (50% cytotoxic concentration), HBV” value turned out to be 28.87 µM. The “TC50 (50% cytotoxic concentration), Cox B3” value with Vero cells came to 21.08 µM. This compound registered an IC50 in the series on Cox B3 of 10.1 µM. The compound further had an IC50 in series [2] greater than 10.1 µM.

`O=[N+]([O-])c1ccc(CNc2ccc3ncoc3c2)cc1` [2b, Benzooxazol-6-yl-(4-nitrobenzyl)-amine] yielded a melting point of 154 to 156 °C. The compound further showed a concentration for half-maximal inhibition (IC50) in the series with HCV greater than 66.7 µM. In the series on MDCK cells, the “TC50 (50% cytotoxic concentration), Influenza A/hanfang/359/95” value was 288.23 µM. For the same compound, the half-inhibitory concentration (IC50) in the series on HBV is greater than 5.56 µM. Besides, the “TC50 (50% cytotoxic concentration), HCV” value in the series with Huh7.5 cells was greater than 200 µM. Further, in the series on HepG2.2.15 cells, the “TC50 (50% cytotoxic concentration), HBV” value came to 16.67 µM. For the same compound, the “TC50 (50% cytotoxic concentration), Cox B3” value with Vero cells was found to be 257.52 µM. Besides, the IC50 in the series on Cox B3 worked out at 31.3 µM. In series [2], this compound returned an IC50 of 41.3 µM.

The compound `COc1cc(CNc2ccc3ncoc3c2)cc(Br)c1O` [2a, 4-(Benzooxazol-6-ylaminomethyl)-2-bromo-6-methoxyphenol] gave a melting point of 129 to 131 °C. In the series on HCV, the concentration for half-maximal inhibition (IC50) turned out to be 33 µM. Further, in the series on MDCK cells, the “TC50 (50% cytotoxic concentration), Influenza A/hanfang/359/95” value came out at 64.04 µM. Besides, the 50% inhibitory concentration (IC50) in the series with HBV was greater than 16.7 µM. The “TC50 (50% cytotoxic concentration), HCV” value in the series on Huh7.5 cells is 89.63 µM. In addition, in the series on HepG2.2.15 cells, the “TC50 (50% cytotoxic concentration), HBV” value was determined as 28.87 µM. Further, the “TC50 (50% cytotoxic concentration), Cox B3” value in the series on Vero cells was 55.13 µM. In the series on Cox B3, this compound had an IC50 of 3.52 µM. This compound registered a 50% inhibitory concentration (IC50) in series [2] greater than 10.6 µM.

The compound `Cc1ccc(CNc2ccc3cc[nH]c3c2)o1` [1c, (1H-Indol-6-yl)-(5-methylfuran-2-ylmethyl)-amine] showed a melting point of 100 to 102 °C. For the same compound, half-maximal inhibition in the series with HCV (IC50) required 2.77 µM. Further, the “TC50 (50% cytotoxic concentration), Influenza A/hanfang/359/95” value with MDCK cells turned out to be 4.52 µM. Moreover, in the series with HBV, the “anti-HBV activity (in words)” value was “complete loss of antiviral activity” and the IC50 was greater than 5.56 µM. Also, the “TC50 (50% cytotoxic concentration), HCV” value in the series with Huh7.5 cells was found to be 46.78 µM. Besides, in the series with HepG2.2.15 cells, the “TC50 (50% cytotoxic concentration), HBV” value amounted to 16.67 µM. Besides, in the series on Vero cells, the “TC50 (50% cytotoxic concentration), Cox B3” value stood at 25.15 µM. In the series with Cox B3, this compound came in with an IC50 of 1.93 µM. This compound showed an IC50 in series [2] greater than 0.66 µM.

Compound `Cc1ccc(CNc2ccc3nc[nH]c3c2)o1` [4b, (3H-Benzoimidazol-5-yl)-(5-methyl-furan-2-ylmethyl)-amine] gave a melting point of 75 to 77 °C. It took 24.4 µM to reach half-maximal inhibition in the series with HCV (IC50). Moreover, the “TC50 (50% cytotoxic concentration), Influenza A/hanfang/359/95” value with MDCK cells turned out to be 440.02 µM. Moreover, in the series on HBV, the “anti-HBV activity (in words)” value is reported as “complete loss of antiviral activity” and the IC50 was greater than 50 µM. The “TC50 (50% cytotoxic concentration), HCV” value in the series on Huh7.5 cells is greater than 200 µM. For the same compound, the “TC50 (50% cytotoxic concentration), HBV” value with HepG2.2.15 cells was greater than 50 µM. The “TC50 (50% cytotoxic concentration), Cox B3” value with Vero cells worked out at 254.07 µM. Moreover, in the series with Cox B3, the 50% inhibitory concentration (IC50) is 48.9 µM. This compound registered a concentration for half-maximal inhibition (IC50) in series [2] of 21.4 µM.

The record behind these values is paper PMC6271935, “Synthesis and Broad-Spectrum Antiviral Activity of Some Novel Benzo-Heterocyclic Amine Compounds” (Molecules, 2014).
